Laboratory results published in article PMC4657531 (EXCLI Journal, 2013).

Tested on: β-glucosidase
Assay: DNS reducing sugar assay, Lineweaver-Burk plot
Type: biochemical, Penicillium simplicissimum
Details: citrate buffer pH 4.8, 50 °C, 30 min; salicin 5-50 mg/ml

Km: 14.881 mg/mL
Structure (SMILES): OCc1ccccc1O[C@@H]1O[C@H](CO)[C@@H](O)[C@H](O)[C@H]1O [salicin]
